Species: Bos taurus
Experiment: Inhibition concentration was evaluated in NADH oxidase assay using bovine heart submitochondrial particles
Format: functional

Structure (SMILES)	IC50
CCCCCCCCCCCC[C@H](OCOC)[C@H](CC[C@@H](OCOC)[C@H](O)CCCCCCCCCCCCC1=C[C@H](C)OC1=O)OCOC	4100 nM
CCCCCCCCCCCC[C@H](O)[C@@H](O)CC[C@@H](O)[C@H](O)CCCCCCCCCCCCC1=C[C@H](C)OC1=O [DIHYDROXY-COHIBIN A]	20 nM

Source: ChEMBL document CHEMBL1148266, “Synthesis and mitochondrial complex I inhibition of dihydroxy-cohibin A, non-THF annonaceous acetogenin analogue” (Bioorg Med Chem Lett, 2004)
